In the test the target is human TSP1 (Homo sapiens, UniProt P07996). Put plainly: Cell adhesion inhibition assay (HUVEC adhesion to TSP1-coated plate). The class given is cell-based. The method, then: As referred to herein, the TSP1 inhibitory activity refers to the activity to inhibit one or more effects of TSP1, including angiostatic effect. The TSP1 inhibitory activity is measured by a cell adhesion inhibition assay using human TSP1 and vascular endothelial cells as described hereinbelow in the Examples section. In this assay, when the 50% inhibitory concentration (IC5O) of a test substance is 200 nM or less, the test substance is determined to have TSP1 inhibitory activity.
(Test Example 1) Cell Adhesion Inhibition Assay
I. Materials and Reagents
96 well Non-treated White with clear bottom (Coster, 3632)
BrightMax adhesive sealing films (EXCEL Scientific, WT50)
Proteosave®SS 15 mL (Sumitomo Bakelite, MS-52150)
Thrombospondin human platelet (Calbiochem, 605225)
EGM-2 MV (Lonza, CC-3202): for HUVEC passaging
Collagen coated dish (IWAKI, 4020-010): for HUVEC passaging
Lipidure®-BL802 (NOF Corporation), 5% solution
Albumin solution (35%) fraction V from Bovine (Sigma, A7979)
CellTiter-Glo (Promega, G7572)
Thrombospondin 1 vial (25 μg) was dissolved in TBS (+2 mM CaCl2; the same shall apply hereunder) to make a 200 μg/mL solution, which was diluted with TBS to a concentration of 10 μg/mL in Proteosave® 15 mL tube. The 10 μg/mL solution was dispensed into a 96 well plate at a volume of 50 μL/well (no reservoir was used since the protein easily adsorbs on it), and the plate was left to stand at 4° C. overnight.
Lipidure® was diluted 10-fold with TBS to make a 0.5% solution. After a buffer was discarded from the plate that had been coated at the step of <Plate coat> as described above, the 0.5% solution was dispensed into all wells to be used at a volume of 100 μL/well, and the plate was left to stand at room temperature for 1 hour.
A 0.2 μM solution of each sample was prepared using a dilution buffer (DMEM+0.5% BSA). 2 μL of the 0.2 μM solution was diluted with 500 μL, of dilution buffer to prepare a diluted sample. As a vehicle control, DMSO was diluted in the same way as the samples.
A blocking solution was discarded from the plate that had been treated at the step of <Plate blocking> as described above, and the plate was washed three times with 150 μL/well of TBS. The washing solution used for the third washing was completely sucked out by an aspirator, and the diluted sample was dispensed into the plate at a volume of 50 μL/well. Then, the plate was left to stand at room temperature for 15 to 30 minutes.
To maintain HUVECs, EGM2-MV and a collagen coated dish were used (the cells were ceased to be used after 10th or 1 lth passage since the cell proliferation rate declined at this stage). The cells were dispersed with 0.05% Trypsin/EDTA, harvested in DMEM/0.5% BSA, and centrifuged at 1000 rpm for 3 minutes. After removal of supernatant, the cells were washed once with a DMEM buffer. The cells were resuspended in a DMEM buffer, counted for cell number, and diluted to 10000 cells/50 μL. The cell suspension was dispensed at a volume of 50 μL/well into the plate into which the sample had been dispensed, mixed gently, and incubated at 37° C. for 2.5 hours.
After cell adhesion was confirmed, the culture medium was completely removed by an aspirator, and 100 μL/well of DMEM/0.5% BSA was gently dispensed. Then, DMEM/0.5% BSA was completely removed by an aspirator, and 50 μL/well of DMEM/0.5% BSA was dispensed. After a white seal was applied to the bottom of the plate, 50 μL/well of CellTiter-Glo® was dispensed, and the solution was stirred for 2 minutes and left to stand at room temperature for 8 minutes. […] was detected using EnVision Xcite Multilabel Reader (produced by Perkin Elmer).
On the basis of the measured fluorescence values, the IC50 values (nM) of the different macrocyclic polypeptides for inhibition of cell adhesion were calculated.

Setting [1] is: HUVEC adhesion to human platelet thrombospondin-coated plate, 2.5 hours, CellTiter-Glo, read-out: Cell adhesion IC50.
[2] abbreviates: HUVEC adhesion to TSP1-coated plate, read-out: cell adhesion inhibition (Table 4).

The structures appear in SMILES notation. Read-outs that look alike come from different tables or passages of the source. Positions of bridges follow the written chain, without caps; N, C: chain ends. Non-standard residues stand in square brackets, D forms with d. Residues, ends and D or L forms follow the SMILES beside them. Trp(6-Cl) = N[C@@H](Cc1c[nH]c2cc(Cl)ccc12)C(=O)O; Phe(3,4-Cl2) = N[C@@H](Cc1ccc(Cl)c(Cl)c1)C(=O)O; 2Nal = N[C@@H](Cc1ccc2ccccc2c1)C(=O)O; Tle = CC(C)(C)[C@H](N)C(=O)O; Nle = CCCC[C@H](N)C(=O)O

Results on 14 compounds are retold here after US11149066B2, “Thrombospondin 1-binding peptide” (DAIICHI SANKYO COMPANY, LIMITED, priority 2016, dated 2021).

human TSP1, sequence (P07996 19-1170 limits assumed): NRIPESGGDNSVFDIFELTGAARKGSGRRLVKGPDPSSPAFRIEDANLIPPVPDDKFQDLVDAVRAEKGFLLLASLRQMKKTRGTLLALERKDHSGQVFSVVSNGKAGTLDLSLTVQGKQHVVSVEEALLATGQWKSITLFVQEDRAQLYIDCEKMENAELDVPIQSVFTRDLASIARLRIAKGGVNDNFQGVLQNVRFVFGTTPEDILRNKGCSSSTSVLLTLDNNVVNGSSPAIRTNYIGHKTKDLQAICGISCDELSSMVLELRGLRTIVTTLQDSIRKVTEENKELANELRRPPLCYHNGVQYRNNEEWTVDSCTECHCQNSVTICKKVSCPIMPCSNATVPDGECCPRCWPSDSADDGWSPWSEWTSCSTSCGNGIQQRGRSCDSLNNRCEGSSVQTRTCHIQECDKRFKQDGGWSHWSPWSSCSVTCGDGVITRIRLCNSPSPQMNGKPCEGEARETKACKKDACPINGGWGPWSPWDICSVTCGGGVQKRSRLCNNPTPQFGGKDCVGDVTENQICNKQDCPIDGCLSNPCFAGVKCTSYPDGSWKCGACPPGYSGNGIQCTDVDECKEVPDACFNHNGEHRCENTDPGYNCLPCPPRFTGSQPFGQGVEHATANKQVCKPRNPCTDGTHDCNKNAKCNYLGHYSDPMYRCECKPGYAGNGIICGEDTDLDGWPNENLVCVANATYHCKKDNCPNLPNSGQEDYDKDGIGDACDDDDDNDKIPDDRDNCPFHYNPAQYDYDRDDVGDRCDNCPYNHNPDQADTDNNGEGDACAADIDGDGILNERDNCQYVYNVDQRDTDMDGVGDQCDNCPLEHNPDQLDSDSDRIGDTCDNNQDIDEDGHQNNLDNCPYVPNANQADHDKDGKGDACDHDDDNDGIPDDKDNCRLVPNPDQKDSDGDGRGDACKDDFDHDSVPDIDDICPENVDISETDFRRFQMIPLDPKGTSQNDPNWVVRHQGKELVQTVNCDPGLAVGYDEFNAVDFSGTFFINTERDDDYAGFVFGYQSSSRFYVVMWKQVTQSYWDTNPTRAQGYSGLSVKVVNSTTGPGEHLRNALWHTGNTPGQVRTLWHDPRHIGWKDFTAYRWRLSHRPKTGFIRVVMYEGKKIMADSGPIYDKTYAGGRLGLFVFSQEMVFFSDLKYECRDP

Take `CCCC[C@@H]1NC(=O)[C@H](Cc2c[nH]c3ccccc23)NC(=O)[C@H](CC(N)=O)NC(=O)[C@H](Cc2c[nH]cn2)NC(=O)CNC(=O)[C@H](CO)NC(=O)[C@H]([C@@H](C)CC)NC(=O)[C@H](Cc2ccc3ccccc3c2)NC(=O)CSC[C@@H](C(N)=O)NC(=O)[C@H](C(C)C)NC(=O)[C@H](Cc2c[nH]c3ccccc23)NC(=O)[C@H](CCCCN)NC1=O` [Compound 59] ({CH2CO}-[2Nal]ISGHNW[Nle]KWVC-NH2; thioether N-12): the IC50 under setting [1] was found to be 20.7 nM.

On to `CC[C@H](C)[C@@H]1NC(=O)[C@H](Cc2c[nH]c3ccccc23)NC(=O)CSC[C@@H](C(N)=O)NC(=O)[C@H](C(C)C)NC(=O)[C@H](Cc2c[nH]c3ccccc23)NC(=O)[C@H](CCCCN)NC(=O)[C@H](C(C)C)NC(=O)[C@H](Cc2c[nH]c3ccccc23)NC(=O)[C@H](CC(N)=O)NC(=O)[C@H](CCCCN)NC(=O)CNC(=O)[C@H](CO)NC1=O` [Compound 16] ({CH2CO}-WISGKNWVKWVC-NH2; thioether N-12), for which the IC50 under setting [1] stood at 21 nM. With `CC(C)[C@@H]1NC(=O)[C@H](Cc2c[nH]c3ccccc23)NC(=O)[C@H](CCCCN)NC(=O)[C@H](C(C)C)NC(=O)[C@H](Cc2c[nH]c3ccccc23)NC(=O)[C@H](CC(N)=O)NC(=O)[C@H](CCCNC(=N)N)NC(=O)CNC(=O)[C@H](CO)NC(=O)[C@H](Cc2ccc3ccccc3c2)NC(=O)[C@H](Cc2ccc(Cl)c(Cl)c2)NC(=O)CSC[C@@H](C(N)=O)NC1=O` [Compound 34] ({CH2CO}-[Phe(3,4-Cl2)][2Nal]SGRNWVKWVC-NH2; thioether N-12), under setting [1], the IC50 came out at 28.1 nM.

On to `CCCC[C@@H]1NC(=O)[C@H](Cc2c[nH]c3ccccc23)NC(=O)[C@H](CC(=O)O)NC(=O)[C@H](CCCCN)NC(=O)CNC(=O)[C@H](CO)NC(=O)[C@H]([C@@H](C)CC)NC(=O)[C@H](Cc2ccc3ccccc3c2)NC(=O)[C@H](CO)NC(=O)CSC[C@@H](C(N)=O)NC(=O)[C@H](C(C)C)NC(=O)[C@H](Cc2c[nH]c3ccccc23)NC(=O)[C@H](CCCNC(=N)N)NC1=O` [Compound 92] ({CH2CO}-S[2Nal]ISGKDW[Nle]RWVC-NH2; thioether N-13), for which the IC50 under setting [2] came to 15.5 nM. As for `CC[C@H](C)[C@@H]1NC(=O)[C@H](Cc2ccc3ccccc3c2)NC(=O)CSC[C@@H](C(N)=O)NC(=O)[C@H](C(C)(C)C)NC(=O)[C@H](Cc2c[nH]c3ccccc23)NC(=O)[C@H](CCCCN)NC(=O)[C@H](C(C)C)NC(=O)[C@H](Cc2c[nH]c3ccccc23)NC(=O)[C@H](CC(N)=O)NC(=O)[C@H](CCCNC(=N)N)NC(=O)CNC(=O)[C@H](CO)NC1=O` [Compound 53] ({CH2CO}-[2Nal]ISGRNWVKW[Tle]C-NH2; thioether N-12), the IC50 under setting [1] stood at 15.9 nM. With `CCCC[C@@H]1NC(=O)[C@H](Cc2c[nH]c3ccccc23)NC(=O)[C@H](CC(=O)O)NC(=O)[C@@H]2CCCN2C(=O)CNC(=O)[C@H](CO)NC(=O)[C@H]([C@@H](C)CC)NC(=O)[C@H](Cc2ccc3ccccc3c2)NC(=O)CSC[C@@H](C(N)=O)NC(=O)[C@H](C(C)C)NC(=O)[C@H](Cc2c[nH]c3ccccc23)NC(=O)[C@H](CCCCN)NC1=O` [Compound 68] ({CH2CO}-[2Nal]ISGPDW[Nle]KWVC-NH2; thioether N-12), the IC50 under setting [1] was 28.1 nM. Still for that read-out and setting: to `CC[C@H](C)[C@@H]1NC(=O)[C@H](Cc2ccccc2)NC(=O)CSC[C@@H](C(N)=O)NC(=O)[C@H](C(C)C)NC(=O)[C@H](Cc2c[nH]c3ccccc23)NC(=O)[C@H](C(C)C)NC(=O)[C@H](C(C)C)NC(=O)[C@H](Cc2c[nH]c3ccccc23)NC(=O)[C@H](CC(N)=O)NC(=O)[C@H](CCCNC(=N)N)NC(=O)CNC(=O)[C@H](CO)NC1=O` [Compound 1] ({CH2CO}-FISGRNWVVWVC-NH2; thioether N-12) belongs 34 nM.

`CCCC[C@@H]1NC(=O)[C@H](Cc2c[nH]c3ccccc23)NC(=O)[C@H](CC(=O)O)NC(=O)[C@H](CCCNC(=N)N)NC(=O)CNC(=O)[C@H](CO)NC(=O)[C@H]([C@@H](C)CC)NC(=O)[C@H](Cc2ccc3ccccc3c2)NC(=O)[C@H](CCC(N)=O)NC(=O)CSC[C@@H](C(N)=O)NC(=O)[C@H](C(C)C)NC(=O)[C@H](Cc2c[nH]c3ccccc23)NC(=O)[C@H](CCCCN)NC1=O` [Compound 86] ({CH2CO}-Q[2Nal]ISGRDW[Nle]KWVC-NH2; thioether N-13): the IC50 under setting [2] was 14.2 nM. Consider `CC[C@H](C)[C@@H]1NC(=O)[C@H](Cc2ccc3ccccc3c2)NC(=O)CSC[C@@H](C(N)=O)NC(=O)[C@H](C(C)C)NC(=O)[C@H](Cc2c[nH]c3ccccc23)NC(=O)[C@H](CCCCN)NC(=O)[C@H](C(C)C)NC(=O)[C@H](Cc2c[nH]c3cc(Cl)ccc23)NC(=O)[C@H](CC(N)=O)NC(=O)[C@H](CCCNC(=N)N)NC(=O)CNC(=O)[C@H](CO)NC1=O` [Compound 35] ({CH2CO}-[2Nal]ISGRN[Trp(6-Cl)]VKWVC-NH2; thioether N-12), for which, under setting [1], the IC50 stood at 26 nM.

On to `CCCC[C@@H]1NC(=O)[C@H](Cc2c[nH]c3ccccc23)NC(=O)[C@H](CC(N)=O)NC(=O)[C@H](Cc2c[nH]cn2)NC(=O)CNC(=O)[C@H](CO)NC(=O)[C@H](CCCNC(=N)N)NC(=O)[C@H](Cc2ccc3ccccc3c2)NC(=O)CSC[C@@H](C(N)=O)NC(=O)[C@H](C(C)C)NC(=O)[C@H](Cc2c[nH]c3ccccc23)NC(=O)[C@H](C(C)C)NC1=O` [Compound 100] ({CH2CO}-[2Nal]RSGHNW[Nle]VWVC-NH2; thioether N-12), for which the IC50 under setting [2] worked out at 19.5 nM. For `CCCC[C@@H]1NC(=O)[C@H](Cc2c[nH]c3ccccc23)NC(=O)[C@H](CC(=O)O)NC(=O)[C@H](CCCCN)NC(=O)CNC(=O)[C@H](CO)NC(=O)[C@H]([C@@H](C)CC)NC(=O)[C@H](Cc2ccc3ccccc3c2)NC(=O)CSC[C@@H](C(N)=O)NC(=O)[C@H](C(C)C)NC(=O)[C@H](Cc2c[nH]c3ccccc23)NC(=O)[C@H](CCCCN)NC1=O` [Compound 57] ({CH2CO}-[2Nal]ISGKDW[Nle]KWVC-NH2; thioether N-12), under setting [1], the IC50 was determined as 15.6 nM. In the case of `CC[C@H](C)[C@@H]1NC(=O)[C@H](Cc2ccc3ccccc3c2)NC(=O)CSC[C@@H](C(N)=O)NC(=O)[C@H](C(C)C)NC(=O)[C@H](Cc2c[nH]c3cc(Cl)ccc23)NC(=O)[C@H](CCCCN)NC(=O)[C@H](C(C)C)NC(=O)[C@H](Cc2c[nH]c3ccccc23)NC(=O)[C@H](CC(N)=O)NC(=O)[C@H](CCCNC(=N)N)NC(=O)CNC(=O)[C@H](CO)NC1=O` [Compound 36] ({CH2CO}-[2Nal]ISGRNWVK[Trp(6-Cl)]VC-NH2; thioether N-12), the IC50 under setting [1] amounted to 17.2 nM. For `CCCC[C@@H]1NC(=O)[C@H](Cc2c[nH]c3ccccc23)NC(=O)[C@H](CC(=O)O)NC(=O)[C@H](CCCNC(=N)N)NC(=O)CNC(=O)[C@H](CO)NC(=O)[C@H]([C@@H](C)CC)NC(=O)[C@H](Cc2ccc3ccccc3c2)NC(=O)[C@H](CCCCN)NC(=O)CSC[C@@H](C(N)=O)NC(=O)[C@H](C(C)C)NC(=O)[C@H](Cc2c[nH]c3ccccc23)NC(=O)[C@H](CCCCN)NC1=O` [Compound 90] ({CH2CO}-K[2Nal]ISGRDW[Nle]KWVC-NH2; thioether N-13), the IC50 under setting [2] came to 17.2 nM. For the compound `CC(C)[C@@H]1NC(=O)[C@H](Cc2c[nH]c3ccccc23)NC(=O)[C@H](CCCNC(=N)N)NC(=O)[C@H](C(C)C)NC(=O)[C@H](Cc2c[nH]c3ccccc23)NC(=O)[C@H](CC(N)=O)NC(=O)[C@H](CCCNC(=N)N)NC(=O)CNC(=O)[C@H](CO)NC(=O)[C@H](CCCNC(=N)N)NC(=O)[C@H](Cc2ccccc2)NC(=O)CSC[C@@H](C(N)=O)NC1=O` [Compound 8] ({CH2CO}-FRSGRNWVRWVC-NH2; thioether N-12), the IC50 under setting [1] came to 33.4 nM.
